Patent US12048680B2, “Use of Gemfibrozil and derivative thereof for treatment and/or prevention of neurodegenerative disease” (Kunming Institute of Zoology Chinese Academy of Sciences, priority 2018, dated 2024)

Key:
APP/PS1ΔE9 mice = test: Water maze test of spatial learning and memory; type: in vivo, mouse
Protocol: Gemfibrozil was administered to 8-month-old APP/PS1ΔE9 mice (male and female halves). Gemfibrozil was first dissolved in dimethyl sulfoxide (DMSO) at a concentration of 50 mg/mL, and then diluted to a final concentration of 50 μg/mL with mouse drinking water to obtain a drug solution. The mice in the administration group were allowed to freely drink the drug solution containing gemfibrozil, in which the final concentration of DMSO in the solution was 0.1%; and the mice in the control group were allowed to drink water containing 0.1% DMSO freely. All drinking devices contained with Gemfibrozil were wrapped in aluminum foil to prevent decomposition by exposure. During dosing, the drug solution was replaced every 2 days. Mice were measured daily for water consumption. After 2 months of dosing, all mice were subjected to behavioural experiments. Mice were placed in the laboratory to be behaviourally tested one hour prior to the start of daily behavioural studies, and all behavioural experiments were completed between 9 and 17 o'clock. All experiments involving animals were approved by Animal Ethics Committee of the Kunming Institute of Zoology, CAS. According to the application, a water maze experiment was adopted to evaluate the learning and memory capacity of AD mice after Gemfibrozil was administered for 2 months. The parameters of the used water maze were as follows: a circular pool having a diameter of 120 cm, a height of 50 cm, and a water depth of about 30 cm; and a cylindrical plastic lifesaving platform having a diameter of 10 cm, a height of 29 cm, and submerged 1 cm below the water surface. The water temperature was kept at 20+1° C. During the test, in order to prevent the mice from seeing the platform, white plastic foam was added to the water to spread on the water surface evenly until the lifesaving platform could not be seen, and the water was replaced every two days. The circular pool was divided into four quadrants, and the lifesaving platform was placed in the center of the third quadrant. A camera was arranged right above the water maze and used for recording the movement track of the mice. Mice were placed from the rearing room into a room for the water maze experiment for 1 hour before the start of each day of the experiment. The mice were trained for 7 consecutive days. The starting position was randomly changed among the four quadrants, the mice were allowed to explore freely for 1 minute, and the time required for the mice to find a lifesaving platform (also known as latency) was measured. If the mouse was able to find the platform within 1 minute, it was allowed to sit on the platform for 20 seconds, so that it can remember the location of the lifesaving platform based on surrounding markers. […] Each mouse was trained at 90-minute intervals each day and randomly placed in the water maze in three different quadrants each day to look for the lifesaving platform. After 4 hours after the last training on the 7th day, the lifesaving platform of the water maze was removed. The mice were put into water, and the time, the distance and the speed of the mice around the lifesaving platform within 1 minute and the number of shuttles at the position of the lifesaving platform were measured, thereby evaluating the short-term memory capacity of the mice. After 72 hours after the last training on the 7th day, the lifesaving platform of the water maze was removed again. The mice were put into water, and the time, the distance and the speed of the mice around the lifesaving platform within 1 minute and the number of shuttles at the position of the lifesaving platform were measured, thereby evaluating the long-term memory capacity of the mice. During the experiment, the surrounding environment of the water maze should be kept consistent to avoid the influence of environmental factors. The behavior of the mice was followed and videotaped throughout the experiment using SMART 3.0 software (Panlab HARVARD, MA, USA). […]

insoluble Aβ = test: ELISA of insoluble Aβ in mouse brain tissue; type: in vivo; conditions: hippocampus and cortex tissues, vs control group (C in FIG. 4)
Protocol: Gemfibrozil was administered to 8-month-old APP/PS1ΔE9 mice (male and female halves). Gemfibrozil was first dissolved in dimethyl sulfoxide (DMSO) at a concentration of 50 mg/mL, and then diluted to a final concentration of 50 μg/mL with mouse drinking water to obtain a drug solution. The mice in the administration group were allowed to freely drink the drug solution containing gemfibrozil, in which the final concentration of DMSO in the solution was 0.1%; and the mice in the control group were allowed to drink water containing 0.1% DMSO freely. All drinking devices contained with Gemfibrozil were wrapped in aluminum foil to prevent decomposition by exposure. During dosing, the drug solution was replaced every 2 days. Mice were measured daily for water consumption. After 2 months of dosing, all mice were subjected to behavioural experiments. Mice were placed in the laboratory to be behaviourally tested one hour prior to the start of daily behavioural studies, and all behavioural experiments were completed between 9 and 17 o'clock. All experiments involving animals were approved by Animal Ethics Committee of the Kunming Institute of Zoology, CAS. 8. Content of insoluble Aβ in mouse brain tissue by ELISA The content of insoluble Aβ in brain tissue was detected by an ELISA kit (Elabscience), and the experiment was performed according to the instructions of the ELISA kit.

astrocytes and microglia = test: Immunofluorescence staining of mouse brain tissue, glia co-localization with Aβ plaques; type: in vivo; conditions: brain tissue of APP/PS1ΔE9 mice

Cc1ccc(C)c(OCCCC(C)(C)C(=O)O)c1 [Gemfibrozil, 2,2-dimethyl-5-(2,5-dimethylphenoxy) pentanoic acid]
learning ability (APP/PS1ΔE9 mice; 8-month-old APP/PS1ΔE9 mice, 50 μg/mL in drinking water for 2 months, 7 days of training, vs control group): significantly improved | short-term memory capacity (APP/PS1ΔE9 mice; 4 hours after the last training, platform removed, vs control group): significantly improved | long-term memory capacity (APP/PS1ΔE9 mice; 72 hours after the last training, platform removed): significantly improved | escape time (latency) required to reach the lifesaving platform (APP/PS1ΔE9 mice; APP/PS1ΔE9 mice, 50 μg/mL in drinking water for 2 months, training phase, vs control group (A in FIG. 1)): less than the control group | range required to reach the lifesaving platform (APP/PS1ΔE9 mice; APP/PS1ΔE9 mice, 50 μg/mL in drinking water for 2 months, training phase, vs control group (B in FIG. 1)): less than the control group | lingering time in the target quadrant (APP/PS1ΔE9 mice; long-term memory, 72 hours after the last training (G in FIG. 1)): increase | distance in the target quadrant (APP/PS1ΔE9 mice; long-term memory, 72 hours after the last training (H in FIG. 1)): increase | number of shuttles at the position of the lifesaving platform (APP/PS1ΔE9 mice; long-term memory, 72 hours after the last training (I in FIG. 1)): increases | lingering time in the target quadrant (APP/PS1ΔE9 mice; short-term memory, 4 hours after the last training (D in FIG. 1)): increase | distance in the target quadrant (APP/PS1ΔE9 mice; short-term memory, 4 hours after the last training (E in FIG. 1)): increase | number of shuttles at the position of the lifesaving platform (APP/PS1ΔE9 mice; short-term memory, 4 hours after the last training (F in FIG. 1)): increases | amount of insoluble Aβ40 (insoluble Aβ): significantly reduced | amount of insoluble Aβ42 (insoluble Aβ): significantly reduced | ratio of insoluble Aβ42 and Aβ40 (insoluble Aβ): did not change significantly | degree of co-localization of the marker Iba1 for microglia with Aβ plaques (astrocytes and microglia; vs control APP/PS1ΔE9 mice (A-B in FIG. 6)): significantly increased | degree of co-localization of GFAP for astrocytes with Aβ plaques (astrocytes and microglia; vs control APP/PS1ΔE9 mice (C-D in FIG. 6)): significantly increased
